In patent US8048928B2, “Therapeutic agent for treating liver disease containing 2-amino-1,3-propanediol derivative as active ingredient, and method for treating liver disease” (Kyorin Pharmaceutical Co., Ltd., priority 2005, dated 2011):
Structures can show the parent of a compound that is named as a salt.

Tested on: Con A-induced hepatitis model
Experiment: Con A-induced hepatitis model: liver-infiltrating cells counted with FACS Calibur
Assay type: in vivo, Male BALB/c mice
Experimental: Male BALB/c mice, aged 8 to 12 weeks, were purchased from Charles River, Japan. Concanavalin A (referred to as “Con A,” hereinafter) was dissolved in phosphate-buffered saline (PBS). 0.2 ml of this solution was intravenously administered to the animals to deliver 40 mg/kg of Con A. KRP-203 suspended in distilled water was orally administered at a dose of 0.1 mg/10 g body weight 24 hours before the administration of Con A. The animals were sacrificed 24 hours after the administration of Con A and the serum transaminase activity was measured. Also, the liver was perfused with 30 mL 0.1% EDTA-PBS to collect liver infiltrate (Eur. J. Immunol., 17: 37, 1987). To avoid contamination with lymphocytes in the periphery blood, the first 2.5 ml of the collected 0.1% EDTA-PBS was discarded. The collected cells were stained with anti-CD4 antibody, anti-CD8 antibody, anti-CD3 antibody, anti-CD45/B220 antibody, anti-CD11b antibody, anti-Ly-49C antibody and were counted with FACS Calibur.

[1] = KRP-203 1 mg/kg oral 24 h before Con A 40 mg/kg i.v., 24 h after Con A

NC(CO)(CO)CCc1ccc(Sc2cccc(OCc3ccccc3)c2)cc1Cl [KRP-203, 2-amino-2-[4-(3-benzyloxyphenylthio)-2-chlorophenyl]ethyl-1,3-propanediol hydrochloride]
Number of cells that infiltrated the liver: B220^+ [1]: 2.06 ± 0.21 ×10^5
Number of cells that infiltrated the liver: CD3^+ NK− [1]: 2.29 ± 0.53 ×10^5
Number of cells that infiltrated the liver: CD4^+ [1]: 0.93 ± 0.33 ×10^5
Number of cells that infiltrated the liver: CD8^+ [1]: 2.53 ± 0.64 ×10^5
Number of cells that infiltrated the liver: CD11b^+ [1]: 8.47 ± 2.75 ×10^5
Number of cells that infiltrated the liver: NK^+ CD3− [1]: 0.40 ± 0.24 ×10^5
Number of cells that infiltrated the liver: Total cells [1]: 16.3 ± 3.5 ×10^5
Decrease of total number of infiltrated cells in the liver (group receiving KRP-203 (1 mg/kg) vs control): about 50%
